Measurements as given in patent publication US9676773B2, “Azaindole derivative” (TAIHO PHARMACEUTICAL CO., LTD., priority 2014, dated 2017).

Assays:
Format in all cases: biochemical
[1] = biological target: T1, purified recombinant human JAK1 protein (Homo sapiens, UniProt P23458); experiment: Measurement of JAK1 kinase-inhibitory activity; conditions: substrate peptide 1 μM, ATP 75 M (so in the source), 25° C., 120 minutes
T1 construct: purchased Carna Biosciences, Inc
Method: 1) Measurement of JAK1 Kinase-Inhibitory Activity
The activity of the compound of the present invention to inhibit the activity of JAK1 kinase was measured.
(§1) Among materials for the measurement of this inhibitory activity, a substrate peptide and a kinase protein were acquired as follows. As such a substrate peptide, a substrate peptide for QSS Assist™ JAK1-MSA assay kit (Carna Biosciences, Inc.) was purchased. As such a kinase protein, a purified recombinant human JAK1 protein (Carna Biosciences, Inc.) was purchased.
The method for measuring the inhibitory activity is as follows. First, the compounds of the present invention were each dissolved in dimethyl sulfoxide (DMSO), and a serial dilution was then prepared by the use of DMSO. Subsequently, a serial dilution solution of the compound (the final concentration of DMSO upon a kinase reaction: 5.0%) or DMSO (final concentration: 5.0%) was mixed with a solution containing the substrate peptide (final concentration: 1 μM), magnesium chloride (final concentration: 5 mM) and ATP (final concentration: 75 µM) in a buffer for kinase reaction (20 mM HEPES (pH 7.5), 2 mM dithiothreitol and 0.01% Triton X-100). Thereafter, a JAK1 protein was further added to the mixed solution, and the obtained mixture was then incubated at 25° C. for 120 minutes to carry out a kinase reaction. To the reaction solution, EDTA was added to a final concentration of 30 mM, so as to terminate the reaction. Finally, with LabChip EZ Reader II (Perkin Elmer Corp.), an unphosphorylated substrate peptide (S) and a phosphorylated peptide (P) were subjected to microchannel capillary electrophoresis, so that the two peptides were separated from each other and were then detected. The amount of a phosphorylation reaction was obtained based on the heights of the peaks of S and P, and the concentration of the compound capable of inhibiting 50% of the phosphorylation reaction was defined as an IC50 value (nM).

[2] = biological target: T2, purified recombinant human JAK2 protein (Homo sapiens, UniProt O60674); experiment: Measurement of JAK2 kinase-inhibitory activity; conditions: FL-Peptide 22 1 μM, ATP 10 μM, 25° C., 80 minutes
T2 construct: purchased Carna Biosciences, Inc
Method: 2) Measurement of JAK2 Kinase-Inhibitory Activity
The activity of the compound of the present invention to inhibit the activity of JAK2 kinase was measured.
as §1, with “FL-Peptide 22 (Perkin Elmer Corp.)” for “a substrate peptide for QSS Assist™ JAK1-MSA assay kit (Carna Biosciences, Inc.)”, “JAK2” for “JAK1”
(§2) The method for measuring the inhibitory activity is as follows. First, a serial dilution of the compound of the present invention was prepared by the same method as that described in the above section regarding JAK1. This serial dilution solution (the final concentration of DMSO upon a kinase reaction: 5.0%) or DMSO (final concentration: 5.0%) was mixed with a solution containing the substrate peptide (final concentration: 1 μM), magnesium chloride (final concentration: 10 mM) and ATP (final concentration: 10 μM) in a buffer for kinase reaction (15 mM Tris (pH 7.5), 2 mM dithiothreitol and 0.01% Tween 20). Thereafter, a JAK2 protein was further added to the mixed solution, and the obtained mixture was then incubated at 25° C. for 80 minutes to carry out a kinase reaction. To the reaction solution, EDTA was added to a final concentration of 30 mM, so as to terminate the reaction. After termination of the reaction, the measurement and the data analysis were carried out by the same methods as those described in the above section regarding JAK1.

[3] = biological target: T3, purified recombinant human JAK3 protein (Homo sapiens, UniProt P52333); experiment: Measurement of JAK3 kinase-inhibitory activity; conditions: substrate peptide 1 μM, ATP 5 μM, 25° C., 80 minutes
T3 construct: purchased Carna Biosciences, Inc
T3 sequence (P52333 1-1124): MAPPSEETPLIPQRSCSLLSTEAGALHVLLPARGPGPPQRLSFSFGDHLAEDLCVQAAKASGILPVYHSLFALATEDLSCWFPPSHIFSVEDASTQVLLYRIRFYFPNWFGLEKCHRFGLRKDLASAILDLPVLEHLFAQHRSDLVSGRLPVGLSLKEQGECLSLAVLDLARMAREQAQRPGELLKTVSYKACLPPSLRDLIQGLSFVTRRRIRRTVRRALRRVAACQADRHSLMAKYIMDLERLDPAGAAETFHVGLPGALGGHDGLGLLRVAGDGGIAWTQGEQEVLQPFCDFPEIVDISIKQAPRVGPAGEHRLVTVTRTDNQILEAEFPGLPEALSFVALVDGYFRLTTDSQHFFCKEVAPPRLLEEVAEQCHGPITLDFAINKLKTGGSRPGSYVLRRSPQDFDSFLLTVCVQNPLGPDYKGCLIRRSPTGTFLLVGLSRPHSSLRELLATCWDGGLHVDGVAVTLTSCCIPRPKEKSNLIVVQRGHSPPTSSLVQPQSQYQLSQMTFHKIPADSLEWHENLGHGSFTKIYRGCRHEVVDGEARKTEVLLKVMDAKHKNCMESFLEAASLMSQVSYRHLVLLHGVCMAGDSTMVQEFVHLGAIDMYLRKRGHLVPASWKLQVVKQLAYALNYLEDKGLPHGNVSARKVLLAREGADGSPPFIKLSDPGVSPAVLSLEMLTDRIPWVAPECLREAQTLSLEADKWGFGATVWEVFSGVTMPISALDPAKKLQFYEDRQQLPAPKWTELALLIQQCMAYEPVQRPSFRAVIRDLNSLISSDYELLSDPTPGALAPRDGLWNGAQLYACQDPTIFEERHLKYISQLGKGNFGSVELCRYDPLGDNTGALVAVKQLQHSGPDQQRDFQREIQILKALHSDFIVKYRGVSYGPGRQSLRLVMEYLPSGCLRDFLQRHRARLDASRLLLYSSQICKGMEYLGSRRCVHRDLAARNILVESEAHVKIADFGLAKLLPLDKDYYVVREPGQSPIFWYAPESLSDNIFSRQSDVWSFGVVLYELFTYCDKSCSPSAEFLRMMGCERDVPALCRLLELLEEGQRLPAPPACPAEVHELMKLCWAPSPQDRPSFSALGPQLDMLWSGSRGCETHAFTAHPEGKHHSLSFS
Method: 3) Measurement of JAK3 Kinase-Inhibitory Activity
The activity of the compound of the present invention to inhibit the activity of JAK3 kinase was measured.
as §1, with “JAK3-MSA” for “JAK1-MSA”, “JAK3” for “JAK1”
as §2, with “5” for “10”, “(20” for “(15”, “HEPES” for “Tris”, “Triton X-100).” for “Tween 20).”, “JAK3” for “JAK2”

T1 sequence (P23458 whole entry): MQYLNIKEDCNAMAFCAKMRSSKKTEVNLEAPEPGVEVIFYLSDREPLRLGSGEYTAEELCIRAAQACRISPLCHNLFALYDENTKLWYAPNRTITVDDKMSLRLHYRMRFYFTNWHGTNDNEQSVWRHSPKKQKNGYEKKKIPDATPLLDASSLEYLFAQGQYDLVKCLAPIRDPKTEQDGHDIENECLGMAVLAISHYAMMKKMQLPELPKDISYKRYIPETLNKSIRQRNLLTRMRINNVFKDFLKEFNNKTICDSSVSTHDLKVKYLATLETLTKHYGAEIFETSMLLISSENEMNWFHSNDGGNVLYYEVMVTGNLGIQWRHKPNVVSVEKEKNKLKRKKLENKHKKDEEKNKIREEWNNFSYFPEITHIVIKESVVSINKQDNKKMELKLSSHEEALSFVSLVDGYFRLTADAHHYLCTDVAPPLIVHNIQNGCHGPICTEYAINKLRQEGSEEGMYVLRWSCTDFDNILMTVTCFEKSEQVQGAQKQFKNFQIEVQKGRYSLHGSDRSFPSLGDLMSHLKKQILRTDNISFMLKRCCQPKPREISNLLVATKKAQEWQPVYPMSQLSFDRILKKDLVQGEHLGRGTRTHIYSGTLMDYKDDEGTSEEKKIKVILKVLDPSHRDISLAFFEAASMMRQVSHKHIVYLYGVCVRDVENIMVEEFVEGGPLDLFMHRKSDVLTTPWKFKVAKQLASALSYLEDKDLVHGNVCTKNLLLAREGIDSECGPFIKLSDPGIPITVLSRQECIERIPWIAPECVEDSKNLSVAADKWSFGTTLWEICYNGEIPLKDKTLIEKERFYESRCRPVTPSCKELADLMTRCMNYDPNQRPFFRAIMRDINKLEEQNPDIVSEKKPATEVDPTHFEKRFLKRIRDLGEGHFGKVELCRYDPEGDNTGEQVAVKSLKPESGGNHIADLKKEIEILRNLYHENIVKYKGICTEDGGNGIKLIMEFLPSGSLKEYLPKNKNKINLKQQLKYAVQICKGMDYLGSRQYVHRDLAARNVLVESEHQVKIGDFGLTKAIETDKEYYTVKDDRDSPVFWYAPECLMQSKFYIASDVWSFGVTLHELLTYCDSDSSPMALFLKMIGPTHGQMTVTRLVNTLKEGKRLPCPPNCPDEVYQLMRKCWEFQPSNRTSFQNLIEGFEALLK
T2 sequence (O60674 whole entry): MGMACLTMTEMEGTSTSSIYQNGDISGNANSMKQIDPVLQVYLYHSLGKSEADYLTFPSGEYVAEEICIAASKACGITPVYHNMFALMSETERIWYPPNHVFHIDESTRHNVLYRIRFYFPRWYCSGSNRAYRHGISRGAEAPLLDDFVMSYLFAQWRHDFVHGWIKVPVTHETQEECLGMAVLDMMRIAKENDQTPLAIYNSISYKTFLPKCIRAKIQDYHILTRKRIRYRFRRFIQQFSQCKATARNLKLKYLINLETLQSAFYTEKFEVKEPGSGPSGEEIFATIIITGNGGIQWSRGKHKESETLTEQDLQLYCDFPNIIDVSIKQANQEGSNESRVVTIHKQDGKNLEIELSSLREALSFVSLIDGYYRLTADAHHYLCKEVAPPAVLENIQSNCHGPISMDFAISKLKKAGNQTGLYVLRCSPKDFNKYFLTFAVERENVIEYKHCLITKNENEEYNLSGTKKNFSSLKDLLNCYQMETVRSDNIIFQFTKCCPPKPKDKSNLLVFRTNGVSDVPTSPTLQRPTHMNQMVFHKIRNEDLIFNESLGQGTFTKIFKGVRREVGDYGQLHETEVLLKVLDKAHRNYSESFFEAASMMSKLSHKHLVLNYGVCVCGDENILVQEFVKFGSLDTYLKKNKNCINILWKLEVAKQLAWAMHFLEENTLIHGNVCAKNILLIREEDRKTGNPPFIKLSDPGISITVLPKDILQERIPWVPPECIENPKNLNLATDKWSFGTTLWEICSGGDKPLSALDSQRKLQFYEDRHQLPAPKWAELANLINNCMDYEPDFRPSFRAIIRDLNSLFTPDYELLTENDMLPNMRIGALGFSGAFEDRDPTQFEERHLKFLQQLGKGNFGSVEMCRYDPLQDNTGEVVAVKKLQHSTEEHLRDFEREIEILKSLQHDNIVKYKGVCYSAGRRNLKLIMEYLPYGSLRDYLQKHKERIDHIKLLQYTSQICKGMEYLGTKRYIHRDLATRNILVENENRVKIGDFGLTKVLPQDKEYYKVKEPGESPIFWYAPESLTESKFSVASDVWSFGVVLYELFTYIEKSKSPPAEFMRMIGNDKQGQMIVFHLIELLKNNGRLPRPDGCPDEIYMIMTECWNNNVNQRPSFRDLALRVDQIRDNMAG

Row | IC50 [1] [µM] | IC50 [2] [µM] | IC50 [3] [µM] | SMILES
1 | > 10 | 3.1 | 0.00038 | C=CC(=O)NC1CCC=C(c2ccnc3[nH]cc(-c4ccncc4)c23)C1 (stereo not drawn) [Compound 2, N-(3-(3-(Pyridin-4-yl)-1H-pyrrolo[2,3-b]pyridin-4-yl)cyclohex-3-en-1-yl)acrylamide]
2 | 7 | 2.6 | 0.00053 | C=CC(=O)NC1CCC=C(c2ccnc3[nH]cc(-c4cccnc4)c23)C1 (stereo not drawn) [Compound 4, N-(3-(3-(Pyridin-3-yl)-1H-pyrrolo[2,3-b]pyridin-4-yl)cyclohex-3-en-1-yl)acrylamide]
3 | 2.4 | 0.43 | < 0.0003 | C=CC(=O)NC1CCC=C(c2ccnc3[nH]cc(-c4ccc(C=O)o4)c23)C1 (stereo not drawn) [Compound 9, N-(3-(3-(5-Formylfuran-2-yl)-1H-pyrrolo[2,3-b]pyridin-4-yl)cyclohex-3-en-1-yl)acrylamide]
4 | 9.5 | 1.9 | 0.00049 | C=CC(=O)NC1CCC=C(c2ccnc3[nH]cc(-c4cncc(CO)c4)c23)C1 (stereo not drawn) [Compound 11, N-(3-(3-(5-(Hydroxymethyl)pyridin-3-yl)-1H-pyrrolo[2,3-b]pyridin-4-yl)cyclohex-3-en-1-yl)acrylamide]
5 | 5.2 | 2 | 0.00034 | C=CC(=O)NC1CCC=C(c2ccnc3[nH]cc(-c4cncs4)c23)C1 (stereo not drawn) [Compound 13, N-(3-(3-(Thiazol-5-yl)-1H-pyrrolo[2,3-b]pyridin-4-yl)cyclohex-3-en-1-yl)acrylamide]
6 | 0.86 | 0.17 | < 0.0003 | C=CC(=O)NC1CCC=C(c2c(OC)cnc3[nH]cc(-c4ccco4)c23)C1 (stereo not drawn) [Compound 17, N-(3-(3-(Furan-2-yl)-5-methoxy-1H-pyrrolo[2,3-b]pyridin-4-yl)cyclohex-3-en-1-yl)acrylamide]
7 | 1 | 0.28 | 0.00051 | C=CC(=O)NC1CCC=C(c2c(-c3cnn(C)c3)cnc3[nH]cc(-c4cccnc4)c23)C1 (stereo not drawn) [Compound 19, N-(3-(5-(1-Methyl-1H-pyrazolo-4-yl)-3-(pyridin-3-yl)-1H-pyrrolo[2,3-b]pyridin-4-yl)cyclohex-3-en-1-yl)acrylamide]
8 | 3.2 | 1.4 | 0.00048 | C=CC(=O)NC1CCC=C(c2ccnc3[nH]cc(C4=CCCCC4)c23)C1 (stereo not drawn) [Compound 30, N-(3-(3-(cyclohex-1-en-1-yl)-1H-pyrrolo[2,3-b]-pyridin-4-yl)cyclohex-3-en-1-yl)acrylamide]
9 | 7.7 | 3 | 0.00071 | C=CC(=O)NC1CCC=C(c2ccnc3[nH]cc(C4=CCOCC4)c23)C1 (stereo not drawn) [Compound 31, N-(3-(3-(3,6-Dihydro-2H-pyran-4-yl)-1H-pyrrolo[2,3-b]pyridin-4-yl)cyclohex-3-en-1-yl)acrylamide]
10 | > 10 | 3 | 0.00072 | C=CC(=O)NC1CCC=C(c2ccnc3[nH]cc(C4=CC(=O)CCC4)c23)C1 (stereo not drawn) [Compound 32, N-(3-(3-(3-Oxocyclohex-1-en-1-yl)-1H-pyrrolo[2,3-b]pyridin-4-yl)cyclohex-3-en-1-yl)acrylamide]
11 | 3.6 | 1.4 | 0.0006 | C=CC(=O)NC1CCC=C(c2ccnc3[nH]cc(C4=CCCC4)c23)C1 (stereo not drawn) [Compound 33, N-(3-(3-(Cyclocyclopent-1-en-1-yl)-1H-pyrrolo[2,3-b]pyridin-4-yl)cyclohex-3-en-1-yl)acrylamide]
12 | 5.8 | 2.5 | 0.00067 | C=CC(=O)NC1CCC=C(c2ccnc3[nH]cc(-c4cccnc4F)c23)C1 (stereo not drawn) [Compound 38, N-(3-(3-(2-Fluoropyridin-3-yl)-1H-pyrrolo[2,3-b]pyridin-4-yl)cyclohex-3-en-1-yl)acrylamide]
13 | > 10 | 4.8 | 0.00083 | C=CC(=O)NC1CCC=C(c2ccnc3[nH]cc(-c4ccc(N)nc4)c23)C1 (stereo not drawn) [Compound 39, N-(3-(3-(6-Aminopyridin-3-yl)-1H-pyrrolo[2,3-b]pyridin-4-yl)cyclohex-3-en-1-yl)acrylamide]
14 | > 10 | 9.1 | 0.00093 | C=CC(=O)NC1CCC=C(c2ccnc3[nH]cc(-c4ccc[n+]([O-])c4)c23)C1 (stereo not drawn) [Compound 43, 3-(4-(5-Acrylamidecyclohex-1-en-1-yl)-1H-pyrrolo[2,3-b]pyridin-3-yl)pyridine 1-oxide]
15 | 1.6 | 0.44 | 0.00034 | C=CC(=O)NC1CCC=C(c2c(C#N)cnc3[nH]cc(-c4ccco4)c23)C1 (stereo not drawn) [Compound 45, N-(3-(5-Cyano-3-(furan-2-yl)-1H-pyrrolo[2,3-b]pyridin-4-yl)cyclohex-3-en-1-yl)acrylamide]
16 | 3.8 | 0.92 | 0.00062 | C=CC(=O)NC1CCC=C(c2ccnc3[nH]cc(-c4nnc(C)o4)c23)C1 (stereo not drawn) [Compound 50, N-(3-(3-(5-Methyl-1,3,4-oxadiazol-2-yl)-1H-pyrrolo[2,3-b]pyridin-4-yl)cyclohex-3-en-1-yl)acrylamide]
